Data as given in ChEMBL document CHEMBL3351986, “Probing linker design in citric acid-ciprofloxacin conjugates” (2014).
Converted amounts (≈) assume the structure as drawn. The source made the active and inactive calls. No cut-off for these calls is given here.

Columns and labels:
[1] = tested on: Staphylococcus epidermidis; assay: Antimicrobial activity against Staphylococcus epidermidis NCTC 2749 after 18 hrs by micro dilution method; assay type: functional; conditions: NCTC 2749, 18 h
[2] = tested on: Burkholderia cepacia; assay: Antimicrobial activity against Burkholderia cepacia BIG 117 after 18 hrs by micro dilution method; assay type: functional; conditions: BIG 117, 18 h
[3] = tested on: Staphylococcus epidermidis; assay: Ratio of compound MIC to ciprofloxacin MIC for Staphylococcus epidermidis NCTC 2749 after 18 hrs by micro dilution method; assay type: functional
[4] = tested on: Burkholderia cepacia; assay: Antimicrobial activity against Burkholderia cepacia BIG 121 after 18 hrs by micro dilution method; assay type: functional; conditions: BIG 121, 18 h
[5] = tested on: Stenotrophomonas maltophilia; assay: Antimicrobial activity against Stenotrophomonas maltophilia N1119 after 18 hrs by micro dilution method; assay type: functional; conditions: N1119, 18 h
[6] = tested on: Pseudomonas aeruginosa; assay: Ratio of compound MIC to ciprofloxacin MIC for Pseudomonas aeruginosa BIG 63 after 18 hrs by micro dilution method; assay type: functional
[7] = Inhibition of DNA gyrase (unknown origin) assessed as reduction in supercoiled form of DNA at 20 uM using ethidium bromide staining by gel electrophoresis
[8] = tested on: Burkholderia cepacia; assay: Ratio of compound MIC to ciprofloxacin MIC for Burkholderia cepacia BIG 9 NCTC 10744 after 18 hrs by micro dilution method; assay type: functional
[9] = tested on: Staphylococcus haemolyticus; assay: Antimicrobial activity against Staphylococcus haemolyticus NCTC 11042 after 18 hrs by micro dilution method; assay type: functional; conditions: NCTC 11042, 18 h
[10] = tested on: Burkholderia cepacia; assay: Antimicrobial activity against Burkholderia cepacia BIG 118 after 18 hrs by micro dilution method; assay type: functional; conditions: BIG 118, 18 h
[11] = tested on: Pseudomonas aeruginosa; assay: Antimicrobial activity against Pseudomonas aeruginosa NCTC 10662 after 18 hrs by micro dilution method; assay type: functional; conditions: NCTC 10662, 18 h
[12] = tested on: Staphylococcus aureus; assay: Antimicrobial activity against Staphylococcus aureus NCTC 13143 after 18 hrs by micro dilution method; assay type: functional; conditions: NCTC 13143, 18 h
[13] = tested on: Stenotrophomonas maltophilia; assay: Antimicrobial activity against Stenotrophomonas maltophilia N1127 after 18 hrs by micro dilution method; assay type: functional; conditions: N1127, 18 h
[14] = tested on: Serratia marcescens; assay: Ratio of compound MIC to ciprofloxacin MIC for Serratia marcescens BIG 11 NCTC 1377 after 18 hrs by micro dilution method; assay type: functional
[15] = tested on: Escherichia coli; assay: Ratio of compound MIC to ciprofloxacin MIC for Escherichia coli NCTC 10418 after 18 hrs by micro dilution method; assay type: functional
[16] = tested on: Staphylococcus aureus; assay: Antimicrobial activity against Staphylococcus aureus HG-1 after 18 hrs by micro dilution method; assay type: functional; conditions: HG-1, 18 h
[17] = tested on: Pseudomonas aeruginosa; assay: Ratio of compound MIC to ciprofloxacin MIC for Pseudomonas aeruginosa environmental isolate after 18 hrs by micro dilution method; assay type: functional
[18] = tested on: Staphylococcus aureus; assay: Antimicrobial activity against Staphylococcus aureus NCTC 13142 after 18 hrs by micro dilution method; assay type: functional; conditions: NCTC 13142, 18 h
[19] = tested on: Escherichia coli; assay: Antimicrobial activity against Escherichia coli BIG 0046 after 18 hrs by micro dilution method; assay type: functional; conditions: BIG 0046, 18 h
[20] = tested on: Serratia marcescens; assay: Antimicrobial activity against Serratia marcescens BIG 11 NCTC 1377 after 18 hrs by micro dilution method; assay type: functional; conditions: BIG 11 NCTC 1377, 18 h
[21] = tested on: Burkholderia cepacia; assay: Antimicrobial activity against Burkholderia cepacia BIG 9 NCTC 10744 after 18 hrs by micro dilution method; assay type: functional; conditions: BIG 9 NCTC 10744, 18 h
[22] = tested on: Pseudomonas aeruginosa; assay: Antimicrobial activity against Pseudomonas aeruginosa environmental isolate BIG 39 after 18 hrs by micro dilution method; assay type: functional; conditions: BIG 39, 18 h
[23] = tested on: Pseudomonas aeruginosa; assay: Antimicrobial activity against Pseudomonas aeruginosa BIG 63 after 18 hrs by micro dilution method; assay type: functional; conditions: BIG 63, 18 h
[24] = tested on: Pseudomonas aeruginosa; assay: Ratio of compound MIC to ciprofloxacin MIC for Pseudomonas aeruginosa NCTC 10662 after 18 hrs by micro dilution method; assay type: functional
[25] = tested on: Stenotrophomonas maltophilia; assay: Antimicrobial activity against Stenotrophomonas maltophilia N1124 after 18 hrs by micro dilution method; assay type: functional; conditions: N1124, 18 h
[26] = tested on: Pseudomonas aeruginosa; assay: Antimicrobial activity against Pseudomonas aeruginosa BIG 37 clinical isolate after 18 hrs by micro dilution method; assay type: functional; conditions: BIG 37, 18 h
[27] = tested on: Staphylococcus epidermidis; assay: Antimicrobial activity against Staphylococcus epidermidis NCTC 11047 after 18 hrs by micro dilution method; assay type: functional; conditions: NCTC 11047, 18 h
[28] = tested on: Staphylococcus aureus; assay: Antimicrobial activity against Staphylococcus aureus (Oxford) NCTC 6571 after 18 hrs by micro dilution method; assay type: functional; conditions: (Oxford) NCTC 6571, 18 h
[29] = tested on: Staphylococcus aureus; assay: Antimicrobial activity against Staphylococcus aureus BIG 52 after 18 hrs by micro dilution method; assay type: functional; conditions: BIG 52, 18 h
[30] = tested on: Escherichia coli; assay: Antimicrobial activity against Escherichia coli NCTC 10418 after 18 hrs by micro dilution method; assay type: functional; conditions: NCTC 10418, 18 h
[31] = tested on: Burkholderia cepacia; assay: Antimicrobial activity against Burkholderia cepacia BIG 119 after 18 hrs by micro dilution method; assay type: functional; conditions: BIG 119, 18 h
[32] = tested on: Burkholderia cepacia; assay: Antimicrobial activity against Burkholderia cepacia BIG 120 after 18 hrs by micro dilution method; assay type: functional; conditions: BIG 120, 18 h
[33] = Inhibition of DNA gyrase (unknown origin) assessed as reduction in supercoiled form of DNA at 5 to 20 uM using ethidium bromide staining by gel electrophoresis

Row | Compound | MIC [1] [µg/mL] | MIC [2] [µg/mL] | MIC [4] [µg/mL] | MIC [5] [µg/mL] | MIC [9] [µg/mL] | MIC [10] [µg/mL] | MIC [12] [µg/mL] | MIC [13] [µg/mL] | MIC [16] [µg/mL] | MIC [18] [µg/mL] | MIC [19] [µg/mL] | MIC [20] [µg/mL] | MIC [21] [µg/mL] | MIC [25] [µg/mL] | MIC [27] [µg/mL] | MIC [28] [µg/mL] | MIC [29] [µg/mL] | MIC [31] [µg/mL] | MIC [32] [µg/mL] | also measured
1 | O=C(O)CC(O)(CC(=O)NCCCCC(=O)N1CCN(c2cc3c(cc2F)c(=O)c(C(=O)O)cn3C2CC2)CC1)C(=O)O (racemic) | 32 (≈ 52.9 µM) | > 36 | > 36 | > 36 | > 36 | > 36 | > 36 | > 36 | > 36 | > 36 | > 36 | 4 (≈ 6.62 µM) | 32 (≈ 52.9 µM) | > 36 | > 36 | > 36 | > 36 | > 36 | > 36 | Ratio [3]: 70; Ratio [6]: 35; inhibition [7]: Active; Ratio [8]: 35; MIC [11]: 16 µg/mL (≈ 26.5 µM); Ratio [14]: 36.5; Ratio [15]: 8.8; Ratio [17]: 35; MIC [22]: 16 µg/mL (≈ 26.5 µM); MIC [23]: 16 µg/mL (≈ 26.5 µM); Ratio [24]: 35; MIC [26]: > 36 µg/mL; MIC [30]: 1 µg/mL (≈ 1.65 µM)
2 | O=C(O)c1cn(C2CC2)c2cc(N3CCNCC3)c(F)cc2c1=O [CIPROFLOXACIN] | 0.25 (≈ 0.754 µM) | 1 (≈ 3.02 µM) | 8 (≈ 24.1 µM) | 1 (≈ 3.02 µM) | 0.125 (≈ 0.377 µM) | 0.25 (≈ 0.754 µM) | > 36 | 2 (≈ 6.04 µM) | > 36 | 0.5 (≈ 1.51 µM) | > 36 | 0.06 (≈ 0.181 µM) | 0.5 (≈ 1.51 µM) | 4 (≈ 12.1 µM) | 0.125 (≈ 0.377 µM) | 0.25 (≈ 0.754 µM) | 0.5 (≈ 1.51 µM) | 4 (≈ 12.1 µM) | 2 (≈ 6.04 µM) | inhibition [33]: Active
